Experiments:
[1] = Stability test of NIK-333 in sealed bottle (peroxide value); format: physicochemical; details: 25° C., sealed bottle in aluminium bag
Experimental: NIK-333 was filled in a sealed bottle and the bottle was put into an aluminium bag. This sample was stored at 25° C., and after 0, 1, and 3 months, the peroxide values were measured.

[2] = tested on: hepatoma; details: one-year oral administration, patients after therapeutic treatment of hepatoma; cited from earlier work

- Peroxide value ([1]; storage period 0 month): 0.4 meq/kg
- Peroxide value ([1]; storage period 1 month): 6.2 meq/kg
- Peroxide value ([1]; storage period 3 months): 14.4 meq/kg
Structure (SMILES): CC(C)=CCC/C(C)=C/CC/C(C)=C/C=C/C(C)=C/C(=O)O [NIK-333, (2E,4E,6E,10E )-3,7,11,15-Tetramethyl-2,4,6,10,14-hexadecapentaenoic acid]
- recurrence of hepatoma [2]: suppress recurrence of hepatoma
- safety [2]: high safety
- survival rate of the patients [2]: increased survival rate of the patients

From patent publication US20060141022A1, “Soft capsule preparation” (priority 2002, published 2006)
